# Counter-ions that a name gives are not always drawn.
# Target: full-length human PRMT8 isoform 1 (Homo sapiens, UniProt Q9NR22)
# Assay: PRMT8 biochemical assay (3H-SAM Flashplate, histone H4 31-45 peptide)
# Conditions: 1.5 nM PRMT8, 30 min preincubation, 150 nM peptide
# Excerpt: S-adenosylmethionine (SAM), S-adenosylhomocysteine (SAH), bicine, Tween20, dimethylsulfoxide (DMSO), bovine skin gelatin (BSG), isopropyl-β-D-thiogalactopyranoside (IPTG), and Tris(2-carboxyethyl)phosphine hydrochloride solution (TCEP) were purchased from Sigma-Aldrich at the highest level of purity possible. ^3H-SAM was purchase from American Radiolabeled Chemicals with a specific activity of 80 Ci/mmol. 384-well streptavidin Flashplates were purchased from PerkinElmer.
# Peptide representative of human histone H4 residues 31-45 was synthesized with an N-terminal linker-affinity tag motif and a C-terminal amide cap by 21st Century Biochemicals. The peptide was purified by high-performance liquid chromatography (HPLC) to greater than 95% purity and confirmed by liquid chromatography mass spectrometry (LC-MS). The sequence was Biot-Ahx-[…]-amide (SEQ ID NO.:8).
# The resulting construct encodes an N-terminal GST tag and a thrombin cleavage sequence
# E. coli (BL21(DE3) Gold, Stratagene) made competent by the CaCl2 method were transformed with the PRMT8 construct and ampicillin selection. Protein over-expression was accomplished by growing the PRMT8 expressing E. coli clone and inducing expression with 0.3 mM IPTG at 16° C. The culture was grown for 12 hours, harvested by centrifugation, and stored at −80° C. for purification.
# GST-tagged PRMT8 was eluted with 50 mM Tris, 2 mM glutathione, pH 7.8. Pooled fractions were cleaved by thrombin (10U) and dialysed in buffer A. GST was removed by reloading the cleaved protein sample onto glutathione sepharose column and PRMT8 was collected in the flow-through fractions. PRMT8 was purified further by ceramic hydroxyapatite chromatography. The column was washed with 50 mM phosphate buffer, 100 mM NaCl, 5% glycerol, 5 mM […], pH 7.8 and PRMT8 was eluted by 100 mM phosphate in the same buffer. Protein was concentrated and buffer was exchanged to 50 mM Tris, 300 mM NaCl, 10% glycerol, 5 mM β-mercaptoethanol, pH 7.8 by ultrafiltration. The purity of recovered protein was 89%.
# General Procedure for PRMT8 Enzyme Assays on Peptide Substrates.
# The assays were all performed in a buffer consisting of 20 mM Bicine (pH=7.6), 1 mM TCEP, 0.005% BSG, and 0.002% Tween 20, prepared on the day of use. Compounds in 100% DMSO (1 ul) were spotted into a polypropylene 384-well V-bottom plates (Greiner) using a Platemate Plus outfitted with a 384-channel head (Thermo Scientific). DMSO (1 ul) was added to Columns 11, 12, 23, 24, rows A-H for the maximum signal control and 1 ul of SAH, a known product and inhibitor of PRMT8, was added to columns 11, 12, 23, 24, rows I-P for the minimum signal control. A cocktail (40 ul) containing the PRMT8 enzyme was added by Multidrop Combi (Thermo-Fisher). The compounds were allowed to incubate with PRMT8 for 30 min at room temperature, then a cocktail (10 ul) containing ^3H-SAM and peptide was added to initiate the reaction (final volume=51 ul). The final concentrations of the components were as follows: PRMT8 was 1.5 nM, ^3H-SAM was 50 nM, non-radiolabeled SAM was 550 nM, peptide was 150 nM, SAH in the minimum signal control wells was 1 mM, and the DMSO concentration was 2%. The assays were stopped by the addition of non-radiolabeled SAM (10 ul) to a final concentration of 400 uM, which dilutes the ^3H-SAM to a level where its incorporation into the peptide substrate is no longer detectable. 50 ul of the reaction in the 384-well polypropylene plate was then transferred to a 384-well Flashplate and the biotinylated peptides were allowed to bind to the streptavidin surface for at least 1 hour before being washed once with 0.1% Tween20 in a Biotek ELx405 plate washer. The plates were then read in a PerkinElmer TopCount plate reader to measure the quantity of ^3H-labeled peptide bound to the Flashplate surface, measured as disintegrations per minute (dpm) or alternatively, referred to as counts per minute (cpm). […]
# full-length human PRMT8 isoform 1, sequence (Q9NR22 whole entry, canonical isoform): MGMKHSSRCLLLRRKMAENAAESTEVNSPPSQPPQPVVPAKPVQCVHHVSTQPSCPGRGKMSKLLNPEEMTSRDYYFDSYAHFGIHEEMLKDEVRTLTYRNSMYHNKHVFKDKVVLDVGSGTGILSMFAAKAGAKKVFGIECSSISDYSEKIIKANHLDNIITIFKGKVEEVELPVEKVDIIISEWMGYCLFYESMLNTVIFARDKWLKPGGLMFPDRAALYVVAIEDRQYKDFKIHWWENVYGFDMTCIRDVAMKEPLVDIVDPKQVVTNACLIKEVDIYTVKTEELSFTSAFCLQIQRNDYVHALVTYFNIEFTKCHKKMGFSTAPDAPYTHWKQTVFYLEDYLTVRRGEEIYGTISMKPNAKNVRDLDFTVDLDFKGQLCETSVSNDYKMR
row,IC50,Structure (SMILES)
1,137 nM,CNCCN(C)Cc1nn[nH]c1[C@H]1CC[C@]2(CC1)CC(C)(C)CO2 [compound 89]
2,> 10000 nM,CNCCN(C)Cc1nncn1[C@H]1CC[C@]2(CC1)CC(C)(C)CO2 [compound 90]
3,1180 nM,CNCCN(C)Cc1nccn1[C@H]1CC[C@]2(CC1)CC(C)(C)CO2 [compound 91]
4,> 10000 nM,CNCCN(C)Cc1nnc(C)n1[C@H]1CC[C@]2(CC1)CC(C)(C)CO2 [compound 93]
5,526 nM,CNCCN(C)Cc1c(Cl)ncn1[C@H]1CC[C@]2(CC1)CC(C)(C)CO2 [compound 97]
6,3680 nM,CNCCN(C)Cc1cncn1[C@H]1CC[C@]2(CC1)CC(C)(C)CO2 [compound 98]
7,43.6 nM,CNCCN(C)Cc1sc(C)nc1[C@H]1CC[C@]2(CC1)CC(C)(C)CO2 [compound 100]
8,51.5 nM,CNCCN(C)Cc1c(C)noc1[C@H]1CC[C@@]2(CC1)CC(C)(C)CO2 [compound 113]
9,482 nM,CNCCN(C)Cc1nocc1[C@H]1CC[C@]2(CC1)CC(C)(C)CO2 [compound 118]
10,58.2 nM,CCOCC1(COCC)CCC(c2n[nH]cc2CN(C)CCN(C)C)CC1 [compound 121]
11,28.3 nM,CCOCC1(COCC)CCC(c2nn(C)cc2CN(C)CCNC)CC1 [compound 122]
12,25.4 nM,CCOCC1(COCC)CCC(c2nn(C)cc2CN(C)CCN)CC1 [compound 124]
13,15.7 nM,CNCCN(C)Cc1c[nH]nc1C1CCC2(CC1)CC(C)(C)OC2=O (centres unmarked) [compound 125]
14,21.3 nM,"CNCCN(C)Cc1c[nH]nc1[C@H]1CC[C@@]2(CC1)COC(C)(C)C2 [compound 126, N1-((3-((5r,8r)-3,3-dimethyl-2-oxaspiro[4.5]decan-8-yl)-1H-pyrazol-4-yl)methyl)-N1,N2-dimethylethane-1,2-diamine]"
15,16.2 nM,"CNCCN(C)Cc1c[nH]nc1[C@H]1CC[C@]2(CCCCO2)CC1 [compound 127, methyl([2-[methyl([3-[(6s,9r)-1-oxaspiro[5.5]undecan-9-yl]-1H-pyrazol-4-yl]methyl)amino]ethyl])amine bistrifluoroacetic acid salt]"

# The remaining lines, values behind:
row,Structure (SMILES),IC50
1,CNCCN(C)Cc1nc(C)sc1[C@H]1CC[C@]2(CC1)CC(C)(C)CO2 [compound 99],49 nM
2,CN(CCN)Cc1nn(C)cc1[C@H]1CC[C@]2(CC1)CC(C)(C)CO2 [compound 102],38.9 nM
3,CNCCN(C)Cc1nn(C)cc1[C@H]1CC[C@]2(CC1)CC(C)(C)CO2 [compound 103],42.7 nM
4,CN(CCN)Cc1c[nH]nc1[C@H]1CC[C@@]2(CC1)CC(C)(C)CO2 [compound 105],9.13 nM
5,CN(CCN)Cc1c[nH]nc1[C@H]1CC[C@]2(CC1)CC(C)(C)CO2 [compound 106],67.2 nM
6,CNCCN(C)Cc1c(C)noc1[C@H]1CC[C@]2(CC1)CC(C)(C)CO2 [compound 114],68 nM
7,CNCCN(C)Cc1n[nH]cc1[C@H]1CC[C@@]2(CC1)CC(C)(C)CO2 [compound 115],16.2 nM
8,CNCCN(C)Cc1n[nH]cc1[C@H]1CC[C@]2(CC1)CC(C)(C)CO2 [compound 116],31.8 nM
9,CNCCN(C)Cc1nocc1[C@H]1CC[C@@]2(CC1)CC(C)(C)CO2 [compound 117],40.8 nM
10,CCOCC1(COCC)CCC(c2n[nH]cc2CN(C)CCN)CC1 [compound 123],9.49 nM

# Same assay, conditions: […] PRMT8, 30 min preincubation, 150 nM peptide
row,IC50,Structure (SMILES)
1,49.9 nM,CNCCN(C)Cc1nn(C)nc1C1CCC2(CC1)CC(C)(C)CO2 (centres unmarked) [compound 86]

# Source: patent publication US20170291905A1, “ARGININE […] INHIBITORS AND USES THEREOF” (Epizyme, Inc., priority 2014, published 2017)
